Among the test systems are BT-549 breast; DU-145 prostate; KM20L2 colon; LXFL 529 NSCLC; MDA-MB-231 breast; MDA-N; RXF-631 renal; SNB-78 CNS.
Assay in all cases: NCI-60 cell line screen, 48 h

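Step 1: Grow cells in 96-well plates. Step 2: Expose to compound for 48 hours at 5 concentrations. Step 3: Interpolate endpoints linearly; if unreached, use highest concentration. The concentration for full growth arrest is given as TGI.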 A value given as a limit tells only on which side of the number the result lay.

On to `CCCCCCCCCCCCCC(=O)CBr`, for which the TGI with BT-549 breast stood at 22.6 µM; in the experiment with DU-145 prostate, 33.7 µM; with KM20L2 colon, 26 µM; with LXFL 529 NSCLC it was 9.13 µM; in the experiment on MDA-MB-231 breast it was 34.2 µM; with MDA-N it was 25 µM. The TGI came out at 33.7 µM in the experiment on RXF-631 renal and 30.9 µM in the experiment on SNB-78 CNS.

In the case of `COc1ccc2oc3cccc(NCCN(C)C)c3c(=O)c2c1`, the TGI was determined as 22 µM in the experiment on KM20L2 colon, 26 µM with LXFL 529 NSCLC, 32.4 µM in the experiment with RXF-631 renal and 36 µM in the experiment on SNB-78 CNS.

Consider `Cc1cccc(C(C)C)c1NC(=O)C(=O)CC(=O)c1c(C)n([O-])c2ccccc2[n+]1=O`, for which the TGI in the experiment with KM20L2 colon was more than 100 µM; with LXFL 529 NSCLC, more than 100 µM; in the experiment on RXF-631 renal, 67.4 µM; with SNB-78 CNS it was more than 100 µM.

As to `O=C(O)c1cc(=O)c2[nH]c3ccccc3c2s1`, the TGI in the experiment with KM20L2 colon, in the experiment with LXFL 529 NSCLC, in the experiment with RXF-631 renal and in the experiment with SNB-78 CNS was more than 100 µM each time.

For the compound `COc1ccc(NC(=O)c2cc(OC)c(OC)c(OC)c2)cc1`, the TGI in the experiment on KM20L2 colon, with LXFL 529 NSCLC, in the experiment on RXF-631 renal and in the experiment on SNB-78 CNS was more than 100 µM each time.

These data come from PubChem BioAssay (NCI).
